Data published in paper PMC8213385, “Development of a Fluorescent Assay to Search New Drugs Using Stable tdTomato-Leishmania, and the Selection of Galangin as a Candidate With Anti-Leishmanial Activity” (Frontiers in Cellular and Infection Microbiology, 2021).
Read-outs that look alike come from different tables or passages of the source.

Legend:
[1] = system: promastigotes of L. amaz/tc3; experiment: Fluorescence assay against promastigotes of L. amaz/tc3 (tdTomato); type: cell-based, Leishmania (Leishmania) amazonensis; conditions: 48 h; for IC50: Leishmania; for Inhibition of parasite growth (promastigotes): doses ≤ 40 µM, fluorescence assay
Description: Then, we evaluated the efficacy of MI, a reference drug for leishmaniasis by the fluorescence method (L. amaz/tc3) and by the conventional method based in counting the parasite at the optic microscope (L. amaz/wt). Mid-log promastigotes of L. amaz/tc3 and L. amaz/wt were harvest and seeded (1 x 10^6/0.1 ml) with different concentrations of MI (40 to 0.6 µg/ml) in a 96-well plate at 23°C. Promastigotes cultured only in medium were the controls. Parasite viability was determined by measuring the fluorescence of L. amaz/tc3 in a plate reader (Tecan, Männedorf, Switzerland) and by counting the mobile promastigotes in a Neubauer chamber at the optic microscope (40x) (Leitz Wetzlar, Germany) at 48 h of incubation with MI. Viability was calculated with the formula: ViabilityL.amaz/tc3 =FLt/FLc×100 where, FLt is the fluorescence of treated culture, and FLc is the fluorescence of control; ViabilityL.amaz/wt=NPt/NPc×100 where, NPt is the number of promastigotes in the treated culture, and NPc is the number of promastigotes in control culture. Then, the 50% inhibitory concentration (IC50) of MI was estimated.
After fluorescence assay validation as it is described above, the method was used to evaluate in vitro the flavonoids anti-leishmanial activity. Mid-log promastigotes of L. amaz/tc3 were harvest and seeded with different concentrations of GAL (1,200 to 18.75 µM), MO, FI and RU (40 to 1.25 µM), and EGCG (300 to 18.75 µM). Positive control were promastigotes treated with PE (4 to 0.25 µM), the negative control were promastigotes cultured with medium only, and the blank was the culture medium. The parasites were incubated at 23°C for 48 h. The anti-leishmanial activity was determined by measuring the parasite fluorescence in a plate reader (Tecan, Männedorf, Switzerland). The viability was estimated as was described above for MI (fluorescent assay). The IC50 was calculated for each compound.

[2] = system: intracellular amastigotes of L. amaz/tc3; experiment: Fluorescence assay in the macrophage-amastigote model (Raw 264.7 infected with L. amaz/tc3); type: cell-based, Leishmania (Leishmania) amazonensis
Description: (§1) Furthermore, the efficacy of MI was also determined against intracellular amastigotes of L. amaz/tc3 and L. amaz/wt. Raw 264.7 macrophages were plated in 96-well black plate (5 x 10^4 cells/well) and in eight well Lab-Tek tissue culture slides (6.6 x 10^4 cells/ml) (Nunc, USA). The cells were infected with promastigotes in stationary phase of L. amaz/tc3 and L. amaz/wt (1:20 ratio) at 33°C, 5% CO2. After incubation, the infected macrophages were washed to remove non-internalized parasites with PBS plus P-S. New RPMI-1640 medium with different concentrations of MI (20 to 0.62 µg/ml) was added to each well and incubated at 33°C, 5% CO2 during 48 h. The anti-leishmanial activity of MI was determined by measuring the fluorescence of intracellular amastigotes of L. amaz/tc3 in a plate reader (Tecan, Männedorf, Switzerland). The viability was calculated as mentioned above, and the IC50 was also estimated. Simultaneously, the leishmanicidal activity of MI against L. amaz/wt was determined by the microscopy test. In this case, the infected macrophages were stained with Diff Quik (Biopur S.R.L., Rosario, Argentina) and the number of intracellular amastigotes was determined in 200-500 macrophages in treated and control cultures per slide under the immersion lens microscope (100x) (Leitz Wetzlar, Germany). The infection index (II) and the % infectivity (I) were calculated by the following formulas: II = IM × A, where IM= infected macrophages (%), A= number of amastigotes per infected macrophages; and I(%)=IIT/IIc×100, where IIT= infection index in treated cultures, IIC= infection index in control cultures ([Ayres et al., 2008]). The IC50 of MI was calculated.
The flavonoids anti-leishmanial activity was also evaluated against intracellular amastigotes. Macrophages (Raw 264.7) were plated in 96-well black plate (5 x 10^4 cell/well) and infected with promastigotes in stationary phase of L. amaz/tc3 (1:20 ratio) at 33°C, 5% CO2. After incubation, the infected macrophages were washed to remove non-internalized parasites with PBS plus P-S. New RPMI-1640 medium with different concentrations of GAL (30 to 3.75 µM), MO (300 to 37.5 µM), FI (65 to 8.12 µM), RU (300 to 37.5 µM) and EGCG (30 to 7.5 µM) was added to each well and incubated at 33°C, 5% CO2 for 48 h. Infected cells treated with Ma (136.6 to 34.1 µM) were the positive controls, and cells incubated only with RPMI-1640 were the negative control. The infected macrophages were incubated during 48 h at 33°C, 5% CO2. After treatment, the fluorescence of intracellular amastigotes of L. amaz/tc3 was measured in a plate reader (Tecan, Männedorf, Switzerland). The viability was determined as was described for MI (fluorescent assay). The selectivity index (SI) (CC50 for macrophages/IC50 for Leishmania) was calculated.

[3] = system: amastigotes of L. (L.) amazonensis; design: method as in Escobar et al., 2002; Morais-Teixeira et al., 2011; conditions: published data ref Escobar et al., 2002; Morais-Teixeira et al., 2011; cited from earlier work
[4] = system: promastigotes of L. (L.) amazonensis; design: method as in Escobar et al., 2002; Morais-Teixeira et al., 2011; conditions: published data ref Escobar et al., 2002; Morais-Teixeira et al., 2011; cited from earlier work
[5] = system: intracellular amastigotes of L. (L.) amazonensis; experiment: Microscopic assay, counting intracellular amastigotes in Raw 264.7 macrophages at the optic microscope; type: cell-based, Leishmania (Leishmania) amazonensis; conditions: for SI (Selectivity index): CC50 for macrophages/IC50 for Leishmania (intracellular amastigotes; Ma from fluorescence IC50); for IC50: Leishmania amazonensis, RAW264.7, Raw 264.7 macrophages, 48 h, optic microscope, read-out: Microscopic IC50 μM (SE), intracellular amastigotes
Description: as §1
Then, to estimate the IC50 values of GAL, FI and MO; and to confirm the IC50 of RU, the activity was evaluated quantifying the intracellular amastigotes at the optic microscope. We followed the same methodology described for MI (microscopic assay) in “In Vitro, Fluorescent Assay Validation” section and the range of concentrations were for GAL (30 to 7.5 µM), FI (60 to 15 µM), RU and MO (200 to 50 µM), EGCG (142 a 17.7 µM).

[6] = Cytotoxicity in macrophage cell line by the MTT method (colorimetric); type: cell-based; conditions: mouse
Description: The cytotoxicity against a cell line of macrophages (Raw 264.7) of GAL, MO, FI, RU, EGCG, PE, MI and MA was determined by the MTT method. Cells (3.3 x 10^5/ml) cells were treated with different concentrations of each compound during 48 h at 37°C, 5% CO2. The controls were incubated with RPMI-1640 medium. Briefly, 50 µl of MTT (2 mg/mL) was added to each well and, after 4 h of incubation at 37°C, 5% CO2, the reaction was stopped dissolving the formazan crystals with 100 µl/well of dimethyl sulfoxide. The relative amount of formazan produced by viable macrophages was determined using a spectrophotometer at 595 nm. The percentage of viable cells was calculated according to the formula (OD treated culture−OD blank)/(OD control−OD blank) ×100 as was described previously ([Adinehbeigi et al., 2017]). The cytotoxicity concentration 50% (CC50) was calculated for each compound.

L. amaz/tc3 = experiment: Efficacy of Ma in BALB/c mice infected with L. amaz/tc3; type: in vivo
Description: Female BALB/c mice were infected in their hind right footpad with the stationary phase of promastigotes (5 x 10^6 parasites/0.05 ml) of L. amaz/tc3. Once a week the footpad swelling was measured with the digital caliper. Mice (n = 5) were treated with Ma in PBS (120 mg Sb/kg/day) starting at week 9 post-infection; the antimonial was administered by intraperitoneal injection (ip) once a day for 21 days. Control group (n = 5) received only PBS (ip). Within a week of finishing the Ma treatment, the parasite load was quantified by three methods, fluorescence (FL), optic microscope (OM) and limiting dilution assay (LD) in treated and control group. The FL method was carried out as follows, the hind right footpad was excised and weighed; then the tissue was homogenized using a glass grinder with 5 ml of complete RPMI-1640 medium and the intracellular amastigotes of L. amaz/tc3 were released. A sample (0.1 ml) of the homogenate was centrifuged to replace the medium for PBS, then it was plated in duplicates in a 96-well black culture plate with clear bottom (Nunc, USA) and the fluorescence was measured in a plate reader (Tecan, Männedorf, Switzerland). Besides, a calibration curve was used to extrapolate the sample fluorescence to the number of amastigotes. For that, a pool of amastigotes from control samples was used; amastigotes (1 x 10^6 to 1.5 x 10^4) were plated in duplicates in a 96-well black culture plate with clear bottom, and the fluorescence was measured in a plate reader (Tecan, Männedorf, Switzerland). The number of amastigotes was adjusted to the weight of the sample.
Another sample of the tissue homogenate was used to quantify the parasite loads by direct counting in a Neubauer chamber under an optical microscope (40X) (Leitz Wetzlar, Germany), and the concentration of parasites (amastigotes/ml) of each homogenate was determined ([Hill et al., 1983]). The total number of parasites was adjusted to the weight of each tissue sample.
Finally, a sample of the tissue homogenate was also used to quantify the parasite loads by the LD assay ([Lima et al., 1997]). After serial dilutions in 96-well plates, the samples were incubated at 23°C for 14 days and the number of viable promastigotes was determined from the highest dilution at which the parasite could grow.

[7] = system: promastigotes of L. amaz/tc3; experiment: Transmission electron microscopy of treated promastigotes; type: cell-based, Leishmania (Leishmania) amazonensis; conditions: exposed to the IC50, 48 h
Description: Ultrastructural alterations in Leishmania induced by flavonoids with anti-leishmanial activity were analyzed by transmission electron microscopy (TEM). […] The control was a culture of L. amaz/tc3 incubated in complete RPMI-1640 medium. After 48 h of incubation, samples of L. amaz/tc3 promastigotes from each culture were fixed in modified Karnovsky’s solution (formaldehyde [2.66%], glutaraldehyde [1.66%]) and PBS 0.1M (pH 7,4), and incubated overnight at 4°C. The fixed samples were post-fixed with a 1/1 solution of PBS/2% osmium tetroxide (OsO4), overnight. Then the material was dehydrated and included in Spurr (Pelco, USA). Ultrathin sections were cut with an ultramicrotome (MT1, Sorvall, USA), mounted on copper grids, and contrasted with uranyl acetate (PELCO, USA) and lead citrate.

[8] = Raw 264.7 macrophage cell line, Raw 264.7, MTT, 48 h, read-out: Colorimetric CC50 μM (SE)
[9] = read-out: IC50 against promastigotes of L. amaz/tc3
[10] = 120 mg Sb/kg/day ip, 21 days, week 13, footpad

Compound: CCCCCCCCCCCCCCCCOP(=O)([O-])OCC[N+](C)(C)C [MI, Miltefosine, reference compound]
- IC50 ([1]; read-out: IC50 against promastigotes): 5.25 ± 0.05 µg/mL
- IC50 ([2]; Leishmania, RAW264.7, 48 h, read-out: IC50 against intracellular amastigotes): 1.65 ± 0.75 µg/mL
- Effective dose for amastigotes [3]: 1.31 µg/mL
- Effective dose for promastigotes [4]: 7.54 µg/mL

Compound: O=c1c(O)c(-c2ccc(O)c(O)c2)oc2cc(O)ccc12 [FI, fisetin]
- Inhibition of parasite growth (promastigotes) [1]: no inhibition
- Fluorescence Inhibition (%) of amastigotes ([2]; 15 µM, 48 h): 31%
- inhibition at 15 µM ([2]; Leishmania, RAW264.7, 48 h, read-out: Fluorescence Inhibition (%) of amastigotes, 15 µM, 48 h): 29 to 31%
- SI (Selectivity index) [5]: < 1
- IC50 [5]: > 60 µM
- CC50 at 48 h [6, 8]: 52.6 µM

Compound: C[C@@H]1O[C@@H](OC[C@H]2O[C@@H](Oc3c(-c4ccc(O)c(O)c4)oc4cc(O)cc(O)c4c3=O)[C@H](O)[C@@H](O)[C@@H]2O)[C@H](O)[C@H](O)[C@H]1O [RU, rutin]
- Inhibition of parasite growth (promastigotes) [1]: no inhibition
- IC50 ([2]; Leishmania, RAW264.7, 48 h, read-out: Fluorescence IC50 μM (SE), intracellular amastigotes): 171 µM
- SI (Selectivity index) [5]: > 1.8
- IC50 [5]: 133 µM
- CC50 at 48 h [6]: > 240 µM

Compound: N=C(N)c1ccc(OCCCCCOc2ccc(C(=N)N)cc2)cc1 [PE, Pentamidine isethionate, reference compound]
- IC50 [1, 9]: 0.67 ± 0.18 µM

Compound: Meglumine antimoniate [Ma]
- IC50 ([2]; Raw 264.7 macrophages, 48 h, 33°C, read-out: Fluorescence IC50 μM (SE), intracellular amastigotes): 80.3 µM
- Inhibition of parasite burden, fluorescence method (FL) (L. amaz/tc3; [10]): 55%
- Inhibition of parasite burden, limiting dilution (LD) assay (L. amaz/tc3; [10]): 54%
- Inhibition of parasite burden, optic microscope (OM) (L. amaz/tc3; [10]): 75%
- Footpad swelling versus control group (L. amaz/tc3; 120 mg Sb/kg/day ip, week 13, p < 0.05): significant difference
- Percentage of inhibition in the parasite load, fluorescence and LD assay (L. amaz/tc3; end of treatment, both methods): 54-55%

Compound: O=c1c(O)c(-c2ccc(O)cc2O)oc2cc(O)cc(O)c12 [MO, morin]
- Inhibition of parasite growth (promastigotes) [1]: no inhibition
- inhibition at 37.5 µM ([2]; Leishmania, RAW264.7, 48 h, read-out: Fluorescence Inhibition (%) of amastigotes, 37.5 µM, 48 h): 13.5%
- SI (Selectivity index) [5]: > 1.8
- IC50 [5]: 122 µM
- CC50 at 48 h [6, 8]: > 230 µM

Compound: O=C(O[C@@H]1Cc2c(O)cc(O)cc2O[C@@H]1c1cc(O)c(O)c(O)c1)c1cc(O)c(O)c(O)c1 [EGCG, (-)-epigallocatechin gallate, reference compound]
- IC50 [1, 9]: 120 ± 17.6 µM
- SI (Selectivity index) [5]: 1.5
- IC50 [5]: 130 µM
- CC50 at 48 h [6, 8]: 194 µM
- Ultrastructural alterations in promastigotes (TEM) [7]: intense cytoplasmic vacuolization
